Data from patent US4197288A, “Neuroleptic radioreceptor assay method and kit” (Burroughs Wellcome Co., priority 1977, dated 1980).
Like-named read-outs stand apart in the source and are kept apart here.

Legend:
[1] = human, in vivo, po
[2] = 0.1 μM drug preincubated with serum 10 min at 37°

| Compound | Drug level recovered in the radioreceptor assay [2] [nM] | further results |
| --- | --- | --- |
| CN(C)CCCN1c2ccccc2Sc2ccc(Cl)cc21 [chlorpromazine] | – | Drug level recovered in the radioreceptor assay (1 μM drug preincubated with serum 10 min at 37°): 1000 ± 100 nM |
| O=C(CCCN1CCC(O)(c2ccc(Cl)cc2)CC1)c1ccc(F)cc1 [Haloperidol] | – | concentration [1]: 10 to 350 nM |
| OCCN1CCN(CCCN2c3ccccc3Sc3ccc(C(F)(F)F)cc32)CC1 [fluphenazine] | 120 ± 10 | – |
| CN1CCN(CCCN2c3ccccc3Sc3ccc(C(F)(F)F)cc32)CC1 [trifluoperazine] | 160 ± 200 | – |
